Test results published in patent publication US20120015977A1, “QUINOLINONE DERIVATIVES USEFUL FOR THE TREATMENT OF CNS DISORDERS” (NEUROSEARCH A/S, priority 2009, published 2012).

test system: Psychomotor seizures induced via corneal stimulation (6 Hz); experiment: 6 Hz electroshock seizure model (anticonvulsant properties); type: in vivo; conditions: Mus musculus, po, 32 mA, 3 s corneal stimulation, p.o., pretreatment time 60 mins, vehicle 5% cremaphor, female NMRI mice, read-out: ED50 (dose that would give a 50% protection from seizures)
Source text: The animal models being used for the discovery of novel antiepileptic drugs are numerous. Among these, a low frequency (6 Hz) electroshock seizure model has recently come into the limelight as a potential model of pharmacoresistant epilepsy (see Epilepsy: a comprehensive textbook, pag. 1477, by Jerome Engel, Timothy A. Pedley, Jean Aicardi, Marc A Dichter, Solomon Moshé—2007—Medical), and it is therefore an animal model of primary interest in antiepileptic drug discovery. The compounds of the invention have shown remarkable activity to protect against 6 Hz seizures.
The evaluation of the anticonvulsant properties was carried out in female NMRI mice (20-25 g, Taconic, Denmark). The mice were housed in groups (8 per cage according to weight) with food and water available ad libitum The environment was temperature (20±2° C.) and humidity (55±15%) controlled, and consisted of a 12:12 h light-dark cycle (lights on 06:00 h). The experiments were performed according to the Danish Committee for Experiments on Animals. […]
For screening purposes, the test compound was tested at 1 dose at 1 time-point. In the case of protection of 3 or more out of 8 mice, the compound were further evaluated in dose response (N=8/group). […]

SMILES | ED50 [mg/kg]
NC(=O)Cn1c(=O)ccc2cc(Br)ccc21 [Compound 1, 2-(6-Bromo-2-oxo-1-quinolyl)acetamide] | 16

test system: not given; experiment: not given; conditions: not given

SMILES | melting point [°C]
NC(=O)Cn1c(=O)ccc2cc(Br)ccc21 [Compound 1, 2-(6-Bromo-2-oxo-1-quinolyl)acetamide] | 256.6 to 257.5
CCC(C(N)=O)n1c(=O)ccc2cc(Br)ccc21 (stereo not drawn) [Compound 2, 2-(6-bromo-2-oxo-1-quinolyl)butanamide] | 138.5 to 140
NC(=O)Cn1c(=O)ccc2cccc(Br)c21 [Compound 3, 2-(8-bromo-2-oxo-1-quinolyl)acetamide] | 158.5 to 160
NC(=O)Cn1c(=O)ccc2cc(Cl)ccc21 [Compound 4, 2-(6-chloro-2-oxo-1-quinolyl)acetamide] | 159.4 to 160.9
NC(=O)Cn1c(=O)ccc2cccc(Cl)c21 [Compound 5, 2-(8-chloro-2-oxo-1-quinolyl)acetamide] | 166.5 to 167.6
CCC(C(N)=O)n1c(=O)ccc2cccc(Cl)c21 (stereo not drawn) [Compound 6, 2-(8-chloro-2-oxo-1-quinolyl)butanamide] | 127 to 128
CCC(C(N)=O)n1c(=O)ccc2cc(Cl)ccc21 (stereo not drawn) [Compound 7, 2-(6-chloro-2-oxo-1-quinolyl)butanamide] | 127.5 to 128.8
CCC(C(N)=O)n1c(=O)ccc2cccc(Br)c21 (stereo not drawn) [Compound 8, 2-(8-bromo-2-oxo-1-quinolyl)butanamide] | 124.2 to 125.5
